Assay results reported in ChEMBL document CHEMBL1201862, “PubChem BioAssay data set” (2004).
Active and inactive are the calls of the source.

Tests used:
[1] = target: Heat shock protein HSP 90-alpha (Homo sapiens, UniProt P07900); type: functional, organism-based
[2] = general mammalian cell viability loss – activator set, cherry-pick, cytotoxicity control for miR-122 modulator project, dose response (AID 720690); type: functional, cell-based;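 further: HEK293T human cells scored for general mammalian cytotoxicity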
[3] = target: T1, Neuropeptide Y receptor type 2 (Homo sapiens, UniProt P49146); assay: Fluorescence-based cell-based high-throughput dose response assay for agonists of NPY-Y2. [Related pubchem assays: 1703 (Screening assay (CNGC inhibitors).), 1359 (Screening assay (NPY-Y2 potentiators or agonists).), 1304 (Screening assay (NPY-Y1 potentiators or agonists).), 1710 (Screening assay (NPY-Y2 agonists).), 1791 (Summary AID.)]; type: functional
T1 sequence (P49146 whole entry): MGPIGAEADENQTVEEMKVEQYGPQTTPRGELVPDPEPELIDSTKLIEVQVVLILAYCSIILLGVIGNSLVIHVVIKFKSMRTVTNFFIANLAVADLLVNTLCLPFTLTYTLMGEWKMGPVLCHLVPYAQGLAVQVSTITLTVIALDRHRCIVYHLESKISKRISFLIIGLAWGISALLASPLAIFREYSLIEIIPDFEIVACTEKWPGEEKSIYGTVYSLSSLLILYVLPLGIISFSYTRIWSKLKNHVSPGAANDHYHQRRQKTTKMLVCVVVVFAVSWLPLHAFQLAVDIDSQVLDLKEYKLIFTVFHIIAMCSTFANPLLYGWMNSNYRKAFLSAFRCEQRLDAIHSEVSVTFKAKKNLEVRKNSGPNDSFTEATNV

[4] = target: T2, Neuropeptide Y receptor type 1 (Homo sapiens, UniProt P25929); assay: Fluorescence-based counterscreen for agonists of NPY-Y2: cell-based high-throughput dose response assay for agonists of NPY-Y1.; type: functional
T2 sequence (P25929 whole entry): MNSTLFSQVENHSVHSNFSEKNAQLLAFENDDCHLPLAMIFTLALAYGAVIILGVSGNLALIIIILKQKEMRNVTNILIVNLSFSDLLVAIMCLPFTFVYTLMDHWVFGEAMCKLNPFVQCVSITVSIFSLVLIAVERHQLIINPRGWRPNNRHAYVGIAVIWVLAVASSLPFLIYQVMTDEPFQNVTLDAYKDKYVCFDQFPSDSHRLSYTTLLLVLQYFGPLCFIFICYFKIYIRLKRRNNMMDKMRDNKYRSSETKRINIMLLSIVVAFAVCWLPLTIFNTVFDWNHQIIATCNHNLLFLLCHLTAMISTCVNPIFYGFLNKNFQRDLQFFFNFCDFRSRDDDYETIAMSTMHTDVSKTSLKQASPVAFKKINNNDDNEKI

[5] = Luminescence Cell-Based Secondary HTS screen to identify cytotoxic compounds of NIH3T3 cells. [Related pubchem assays: 1885, 1968 ]; type: functional
[6] = cells
[7] = target: Nucleotide-binding oligomerization domain-containing protein 2 (Homo sapiens, UniProt Q9HC29); assay: inhibition of NOD2-driven NF-kB reporter – cell-based, luminescence, uHTS, HEK293 (AID 1566); type: functional
[8] = test system: HEK293; assay: inhibition of NOD1-driven NF-kB reporter – cell-based, luminescence, uHTS, primary screen (AID 1578); type: functional; conditions: Homo sapiens
[9] = cytotoxicity in MITF-independent A375 cells – cell-based, CellTiter-Glo luminescence, dry powder, set 4, counter-screen for MITF inhibitor project, dose response (AID 624364); type: functional; conditions: A-375;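 further: A375 melanoma cells are MITF independent so this is a counter screen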
[10] = T. cruzi infection blockers in NIH3T3 cells – beta-gal luminescence, NIH3T3 host cells, confirmation (AID 2630); type: functional, cell-based; conditions: Mus musculus
[11] = test system: Streptococcus; assay: GAS UMAA2166 growth inhibition – luminescence, BacTiterGlo, counter-screen for streptokinase expression inhibitor project, dose response (AID 1915); type: functional, organism-based;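 further: potency for reduction of bacterial viability or growth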
[12] = target: Polyadenylate-binding protein 1 (Homo sapiens, UniProt P11940); assay: MLLE binding blockers, Cy5 peptide tracer – biochemical, fluorescence polarization, Cy5-PAM2 peptide, secondary, miRNA deadenylation inhibitor project, dose response (AID 602260); type: functional; conditions: read-out: IC50_Mean
[13] = viability loss in HeLa cells – cytotoxicity control for MgcRacGAP inhibitor project, dose response (AID 624300); type: functional
[14] = target: Beta-galactosidase (Escherichia coli, UniProt Q8VNN2); assay: detection-enzyme interference by beta-gal modulators – biochemical, E. coli enzyme, set 3, artefact control for CCR6 antagonist project, dose response (AID 504712); type: functional
[15] = target: T3, Sphingosine 1-phosphate receptor 4 (Homo sapiens, UniProt O95977); assay: Fluorescence dose response cell-based high throughput screening assay for antagonists of the Sphingosine 1-Phosphate Receptor 4 (S1P4). [Related pubchem assays: 1524 (Confirmation in triplicates.), 1510 (Primary screen.)]; type: functional
T3 sequence (O95977 whole entry): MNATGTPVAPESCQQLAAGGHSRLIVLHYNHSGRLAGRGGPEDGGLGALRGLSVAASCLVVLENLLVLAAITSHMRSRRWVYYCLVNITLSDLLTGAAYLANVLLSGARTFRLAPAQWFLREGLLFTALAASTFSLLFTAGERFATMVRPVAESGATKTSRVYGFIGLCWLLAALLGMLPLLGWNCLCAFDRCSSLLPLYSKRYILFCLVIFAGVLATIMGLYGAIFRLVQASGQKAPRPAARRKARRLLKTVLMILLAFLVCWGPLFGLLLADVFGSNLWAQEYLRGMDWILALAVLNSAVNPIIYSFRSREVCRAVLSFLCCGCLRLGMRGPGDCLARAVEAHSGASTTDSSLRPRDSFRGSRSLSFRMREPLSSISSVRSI

Nucleotide-binding oligomerization domain-containing protein 2, sequence (Q9HC29 whole entry, the tested form may be a part): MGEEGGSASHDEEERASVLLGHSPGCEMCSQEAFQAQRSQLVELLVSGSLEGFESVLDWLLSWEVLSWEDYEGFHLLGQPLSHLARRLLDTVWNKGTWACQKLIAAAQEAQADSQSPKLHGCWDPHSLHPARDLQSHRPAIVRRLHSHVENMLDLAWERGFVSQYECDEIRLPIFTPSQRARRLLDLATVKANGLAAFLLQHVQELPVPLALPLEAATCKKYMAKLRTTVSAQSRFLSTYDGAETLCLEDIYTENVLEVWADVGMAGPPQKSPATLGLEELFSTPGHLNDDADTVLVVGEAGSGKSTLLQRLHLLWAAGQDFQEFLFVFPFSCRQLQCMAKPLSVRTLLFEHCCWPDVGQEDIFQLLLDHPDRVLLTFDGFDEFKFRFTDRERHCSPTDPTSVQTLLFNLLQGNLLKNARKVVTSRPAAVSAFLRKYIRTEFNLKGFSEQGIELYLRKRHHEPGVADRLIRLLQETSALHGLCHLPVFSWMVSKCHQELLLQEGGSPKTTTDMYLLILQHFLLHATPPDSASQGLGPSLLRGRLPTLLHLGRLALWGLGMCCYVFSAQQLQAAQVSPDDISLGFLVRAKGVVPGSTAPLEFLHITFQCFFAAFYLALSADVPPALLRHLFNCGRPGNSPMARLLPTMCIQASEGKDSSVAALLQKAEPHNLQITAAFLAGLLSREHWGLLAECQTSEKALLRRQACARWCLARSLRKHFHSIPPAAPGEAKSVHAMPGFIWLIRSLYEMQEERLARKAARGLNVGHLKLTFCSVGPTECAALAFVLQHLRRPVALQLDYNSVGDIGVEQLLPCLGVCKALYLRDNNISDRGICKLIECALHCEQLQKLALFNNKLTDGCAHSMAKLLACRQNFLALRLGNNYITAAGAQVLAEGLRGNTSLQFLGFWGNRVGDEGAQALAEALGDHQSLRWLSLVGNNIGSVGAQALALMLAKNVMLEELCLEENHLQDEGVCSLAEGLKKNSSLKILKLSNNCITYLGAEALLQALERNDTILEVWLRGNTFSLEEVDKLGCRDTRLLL
Beta-galactosidase, sequence (Q8VNN2 whole entry): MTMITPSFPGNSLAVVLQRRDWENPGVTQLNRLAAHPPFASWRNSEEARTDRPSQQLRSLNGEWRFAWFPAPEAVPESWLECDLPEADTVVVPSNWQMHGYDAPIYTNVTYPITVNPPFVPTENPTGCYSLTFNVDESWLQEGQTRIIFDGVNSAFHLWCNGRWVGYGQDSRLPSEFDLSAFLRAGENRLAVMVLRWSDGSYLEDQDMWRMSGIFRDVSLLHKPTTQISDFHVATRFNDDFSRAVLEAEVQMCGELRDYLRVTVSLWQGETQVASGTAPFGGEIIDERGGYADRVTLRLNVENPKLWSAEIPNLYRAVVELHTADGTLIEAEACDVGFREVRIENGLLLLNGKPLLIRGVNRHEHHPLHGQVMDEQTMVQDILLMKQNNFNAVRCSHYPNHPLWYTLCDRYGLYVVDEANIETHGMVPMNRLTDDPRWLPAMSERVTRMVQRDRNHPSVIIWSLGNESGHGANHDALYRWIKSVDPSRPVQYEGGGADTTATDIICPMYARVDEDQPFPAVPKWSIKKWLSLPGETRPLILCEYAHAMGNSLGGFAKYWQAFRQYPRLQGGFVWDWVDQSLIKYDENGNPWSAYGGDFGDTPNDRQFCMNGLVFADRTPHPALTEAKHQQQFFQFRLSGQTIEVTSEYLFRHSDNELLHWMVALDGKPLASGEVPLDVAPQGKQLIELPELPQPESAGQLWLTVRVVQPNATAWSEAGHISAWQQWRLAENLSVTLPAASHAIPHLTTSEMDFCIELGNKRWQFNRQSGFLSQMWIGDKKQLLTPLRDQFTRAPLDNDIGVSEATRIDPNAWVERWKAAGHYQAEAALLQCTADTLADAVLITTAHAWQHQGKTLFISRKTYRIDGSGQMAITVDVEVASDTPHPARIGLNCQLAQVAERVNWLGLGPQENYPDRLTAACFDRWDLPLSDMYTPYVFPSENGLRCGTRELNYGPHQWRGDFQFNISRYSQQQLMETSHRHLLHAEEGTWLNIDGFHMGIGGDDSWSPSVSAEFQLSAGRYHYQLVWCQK
Polyadenylate-binding protein 1, sequence (P11940 whole entry): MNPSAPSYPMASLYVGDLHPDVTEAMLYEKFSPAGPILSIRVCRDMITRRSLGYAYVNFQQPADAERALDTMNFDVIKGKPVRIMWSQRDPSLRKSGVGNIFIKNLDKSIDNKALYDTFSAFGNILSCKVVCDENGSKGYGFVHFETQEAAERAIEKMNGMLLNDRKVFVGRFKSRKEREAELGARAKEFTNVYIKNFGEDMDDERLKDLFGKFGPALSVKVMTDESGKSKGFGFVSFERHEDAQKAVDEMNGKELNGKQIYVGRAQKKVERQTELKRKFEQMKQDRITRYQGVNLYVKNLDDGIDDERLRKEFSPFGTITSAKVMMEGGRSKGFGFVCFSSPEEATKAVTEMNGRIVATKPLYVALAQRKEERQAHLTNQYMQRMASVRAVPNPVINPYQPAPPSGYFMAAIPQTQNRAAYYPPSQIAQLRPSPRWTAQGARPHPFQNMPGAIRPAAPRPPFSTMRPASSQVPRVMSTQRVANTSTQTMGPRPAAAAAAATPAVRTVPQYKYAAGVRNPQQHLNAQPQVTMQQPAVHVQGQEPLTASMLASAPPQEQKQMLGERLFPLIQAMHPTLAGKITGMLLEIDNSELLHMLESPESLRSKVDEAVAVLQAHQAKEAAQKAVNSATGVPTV

SMILES: O=C(CC(O)(C(F)(F)F)C(F)(F)F)Nc1ccc(Cl)c(Cl)c1
- AC50 [1]: 16.8 µM (active)
- AC50 [2]: 2.27 µM (active)
- EC50 [3]: 21.7 µM (not active)
- EC50 [4]: 16.5 µM (not active)

SMILES: O=C(CNc1cccc2ccccc12)N/N=C/c1ccc([N+](=O)[O-])o1
- EC50 [5]: 17.5 µM (active)
- EC50 [6]: 0.064 µM (active)
- EC50 [7]: 5.55 µM (active)
- EC50 [8]: 3.28 µM (active)
- AC50 [9]: > 70 µM (inactive)
- EC50 [10]: 0.022 µM (active)
- EC50 [11]: 6.2 µM (active)

SMILES: O=C(O)CSc1cc(NS(=O)(=O)c2ccc(Br)cc2)c2ccccc2c1O
- IC50 [12]: > 66 µM (inactive)

SMILES: Cc1ccc(NC(=O)C2=C(c3ccccc3)S(=O)(=O)CCS2(=O)=O)cc1
- CC50 [13]: 100 µM (active)
- IC50 [14]: > 66.6 µM (inactive)
- IC50 [15]: 1.04 µM (active)
